Laboratory results taken from PubChem BioAssay AID2060609 (Molecular Pharmacology Branch, DTP, NCI, 2025).
“And” between values parts separate entries of the source, which are not always exact repeats. Equal entries are not always repeated.

System: 855422-203-R-J1-PDC complex spheroids, viability
Assay: Anticancer human tumor 855422-203-R-J1-PDC patient-derived bladder carcinoma cell line growth inhibition [CLK]
Settings: for viability, T/C: stronger effect = lower value
Description: A high-throughput screen of multi-cell type tumor spheroids was designed to identify active combinations of […] and targeted small molecules. Complex spheroids include a stromal component modeled by human endothelial cells (HUVEC) and fibroblasts modeled by human mesenchymal stem cells (MSCs). The concentration ranges selected for each drug and investigational agent were based upon clinically achievable concentrations if the clinical Cmax of the agent was known.
Compounds. The drugs and investigational agents: cirtuvivint (SM08502; NSC835563), CC-671 (NSC850746), vemurafenib (NSC761431), tapotoclax (NSC804041), sotorasib (NSC818433), adagrasib (NSC831453), MRTX-1133 (NSC836407), BAY2416964 (NSC825713), copanlisib (NSC816437), inavolisib (NSC800729), abemaciclib (NSC768073), osimertinib (NSC779217), entinostat (NSC756642), eltanexor (KPT-8602, NSC794443), venetoclax (NSC766270), ceralasertib (NSC777638), bortezomib (NSC756655), olaparib (NSC753686), talazoparib (NSC767125), alisertib (NSC759677), peposertib (NSC802822), gemcitabine (NSC613327), 5-fluorouracil (NSC19893), SN-38 (NSC673596), oxaliplatin (NSC266046), paclitaxel (NSC125973), and doxorubicin (NSC123127), were obtained from the National Cancer Institute (NCI) Developmental Therapeutics Program Chemical Repository. The FDA-approved anticancer drug set is available from the Developmental Therapeutics Program at https://dtp.cancer.gov/organization/dscb/obtaining/available plates.htm. […] The stock solutions were prepared in dimethyl sulfoxide (DMSO, Sigma-Aldrich, St. Louis, MO, cat. D2650), except for the platinum complexes which were prepared in saline (Quality Biological, Gaithersburg, MD, cat. 114-055-101), at 800-fold the tested concentration and stored at -70 degrees C prior to their use. All drugs and investigational agents were tested over a range starting from a high concentration at or near the clinical Cmax and decreasing in half-log increments. If the clinical Cmax for an agent had not been determined, the highest concentration tested was 10 microM.
Cell Culture. All cells were maintained in an incubator at 37 degrees C and 5% CO2 with 95% humidity. The PDC lines were cultured according to standard operating procedures established by the NCI PDMR. Briefly, all PDCs were thawed and cultured in Matrigel-coated flasks prepared with a working solution of 1X Ham's F-12 nutrient mix, without supplementation (Invitrogen, Waltham, MA, cat. 11765054), 100 U/mL penicillin-streptomycin (Invitrogen, cat. 15140122), and 2.5% Matrigel (Corning Inc., Corning, NY, cat. 354248) for the first three passages. The 947758-054-R-J2-PDC line was cultured in 6B/Colon 1A media, which includes advanced DMEM/F-12 (Thermo Fisher Scientific, cat. 12634028), 10 mM HEPES (Thermo Fisher Scientific, cat. 15630080), 1X GlutaMAX supplement (Thermo Fisher Scientific, cat. 35050061), 0.1 mg/mL primocin (InvivoGen, cat. ant-pm-2), 10% defined fetal bovine serum, heat inactivated (HyClone Laboratories Inc., cat. SH30070.03HI), 1.25 mM N-Acetyl-L-cysteine (Sigma-Aldrich, cat. A9165), 10 mM nicotinamide (Sigma-Aldrich, cat. N0636), 1X B-27 supplement (Thermo Fisher Scientific, cat. 17504044), 1X N-2 supplement (Thermo Fisher Scientific, cat. 17502048), and 10 microM Y-27632 dihydrochloride (Tocris Bioscience, cat. 1254). The 876862-298-R-J1-PDC was cultured in 6E media, which includes all 6B/Colon 1A media components plus 50% L-WRN conditioned media (ATCC, cat. CRL-3276), 50 ng/mL recombinant human EGF recombinant protein (hEGF; Thermo Fisher Scientific, cat. PHG0311), 10 ng/mL recombinant human fibroblast growth factor 10 (hGFG-10; PeproTech, cat. 100-26), 1 ng/mL recombinant human fibroblast growth factor 2 (hFGF-2; PeproTech, cat. 100-18B), and 1 µM prostaglandin E2 (PGE2; Tocris, cat. 2296). The 227483-062-R1-J1-PDC line was cultured in Panc media, containing all 6E components except hFGF-2, with the addition of 500 nM SB-431542 (Selleckchem, cat. S1067) and 10 nM gastrin (Tocris, cat. 3006). […]
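Also: spheroids exposed to drugs for seven days before readout.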
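For viability, T/C in this document: 100% = DMSO vehicle control wells.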

Compound: CC(Nc1ccc2c(c1)OCCn1cc(N3C(=O)OCC3C(F)F)nc1-2)C(N)=O (centres undefined) + CNC(=O)c1ccc(Nc2nc(OC3CCCC3)c3c(-c4ccc5nc(C)oc5c4)c[nH]c3n2)c(OC)c1
- IC50 (curve of first compound, second compound 0.0316 µM): 161 nM
- IC50 (curve of first compound, second compound 0.1 µM): 181 nM
- IC50 (curve of first compound, second compound 0.316 µM): < 31.6 nM
- IC50 (curve of first compound, second compound 1 µM): < 31.6 nM
- IC50 (curve of first compound, second compound 3.16 µM): < 31.6 nM
- IC50 (curve of first compound, second compound 10 µM): < 31.6 nM
- viability, T/C (second compound 0.0316 µM, first compound 0.0316 µM): 80.5%
- viability, T/C (second compound 0.0316 µM, first compound 0.1 µM): 59.6%
- viability, T/C (second compound 0.0316 µM, first compound 0.316 µM): 36.1%
- viability, T/C (second compound 0.0316 µM, first compound 1 µM): 26.3%
- viability, T/C (second compound 0.0316 µM, first compound 3.16 µM): 19.7%
- viability, T/C (second compound 0.0316 µM, first compound 10 µM): 11.1%
- viability, T/C (second compound 0.1 µM, first compound 0.0316 µM): 61.9%
- viability, T/C (second compound 0.1 µM, first compound 0.1 µM): 58.6%
- viability, T/C (second compound 0.1 µM, first compound 0.316 µM): 42.6%
- viability, T/C (second compound 0.1 µM, first compound 1 µM): 27.5%
- viability, T/C (second compound 0.1 µM, first compound 3.16 µM): 19.7%
- viability, T/C (second compound 0.1 µM, first compound 10 µM): 12%
- viability, T/C (second compound 0.316 µM, first compound 0.0316 µM): 15.8%
- viability, T/C (second compound 0.316 µM, first compound 0.1 µM): 15.3%
- viability, T/C (second compound 0.316 µM, first compound 0.316 µM): 13.8%
- viability, T/C (second compound 0.316 µM, first compound 1 µM): 13.4%
- viability, T/C (second compound 0.316 µM, first compound 3.16 µM): 9.9%
- viability, T/C (second compound 0.316 µM, first compound 10 µM): 6.79%
- viability, T/C (second compound 1 µM, first compound 0.0316 µM): 16.9%
- viability, T/C (second compound 1 µM, first compound 0.1 µM): 16.6%
- viability, T/C (second compound 1 µM, first compound 0.316 µM): 11.4%
- viability, T/C (second compound 1 µM, first compound 1 µM): 9.1%
- viability, T/C (second compound 1 µM, first compound 3.16 µM): 8.21%
- viability, T/C (second compound 1 µM, first compound 10 µM): 4.44%
- viability, T/C (second compound 3.16 µM, first compound 0.0316 µM): 21.2%
- viability, T/C (second compound 3.16 µM, first compound 0.1 µM): 15.8%
- viability, T/C (second compound 3.16 µM, first compound 0.316 µM): 9.09%
- viability, T/C (second compound 3.16 µM, first compound 1 µM): 9.68%
- viability, T/C (second compound 3.16 µM, first compound 3.16 µM): 8.52%
- viability, T/C (second compound 3.16 µM, first compound 10 µM): 5.74%
- viability, T/C (second compound 10 µM, first compound 0.0316 µM): 15.8%
- viability, T/C (second compound 10 µM, first compound 0.1 µM): 12.1%
- viability, T/C (second compound 10 µM, first compound 0.316 µM): 10.3%
- viability, T/C (second compound 10 µM, first compound 1 µM): 10.3%
- viability, T/C (second compound 10 µM, first compound 3.16 µM): 7.09%
- viability, T/C (second compound 10 µM, first compound 10 µM): 3.99%

Compound: O=c1[nH]cc(F)c(=O)[nH]1
- viability, T/C (compound 0.0316 µM): 109% and 162%
- viability, T/C (compound 0.1 µM): 103% and 123%
- viability, T/C (compound 0.316 µM): 86.9% and 104%
- viability, T/C (compound 1 µM): 60.5% and 74.4%
- viability, T/C (compound 3.16 µM): 51.7% and 56%
- viability, T/C (compound 10 µM): 40% and 45.8%
- IC50 (curve of compound): 2690 nM and 6240 nM
